Holding throughout (test): relative viability (nuclei count vs DMSO), 5 days (fraction); higher = more cells survive
Compound in the experiment “AZ3146 + Vorinostat”: CN1CCC(CC1)OC2=CC(=C(C=C2)NC3=NC=C4C(=N3)N(C(=O)N4C)C5CCCC5)OC [AZ3146] + O=C(CCCCCCC(=O)Nc1ccccc1)NO [Vorinostat] (partner 1 µM)
An outline of the steps: (§1)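 For relative viability, nuclei counts in treated wells were divided by those in vehicle wells. Lung cancer cell lines had been pin-tool dosed in 1536-well plates the day after seeding and cultured for 5 days, then fixed and stained in one step (final 0.05% Triton X-100, 1% formaldehyde, 1 ug/ml Hoechst) and imaged at 4×. Doses were one drug alone or a fixed anchor-drug dose plus five library-drug doses (not always all listed) in √10 steps, and values are duplicate-plate medians.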

Compound in the experiment “AZ3146 + Alpelisib”: CN1CCC(CC1)OC2=CC(=C(C=C2)NC3=NC=C4C(=N3)N(C(=O)N4C)C5CCCC5)OC [AZ3146] + Cc1nc(NC(=O)N2CCC[C@H]2C(N)=O)sc1-c1ccnc(C(C)(C)C(F)(F)F)c1 [Alpelisib] (partner 2 µM)
The essentials:
as §1

Compound in the experiment “GSK-J4 + Pemetrexed”: CCOC(=O)CCNc1cc(N2CCc3ccccc3CC2)nc(-c2ccccn2)n1 [GSK-J4] + Nc1nc2[nH]cc(CCc3ccc(C(=O)N[C@@H](CCC(=O)O)C(=O)O)cc3)c2c(=O)[nH]1 [Pemetrexed] (partner 0.2 µM)
An outline of the steps:
as §1

Compound in the experiment “GSK-J4 + Crizotinib”: CCOC(=O)CCNc1cc(N2CCc3ccccc3CC2)nc(-c2ccccn2)n1 [GSK-J4] + C[C@@H](Oc1cc(-c2cnn(C3CCNCC3)c2)cnc1N)c1c(Cl)ccc(F)c1Cl [Crizotinib] (partner 1 µM)
An outline of the steps:
as §1

As for UMC-11, the relative viability with AZ3146 + Vorinostat (first compound 0.08 µM) was found to be 0.299; with AZ3146 + Vorinostat (first compound 0.253 µM) it was 0.389; with AZ3146 + Vorinostat (first compound 0.8 µM) it was 0.406; with AZ3146 + Vorinostat (first compound 2.53 µM), 0.267; with AZ3146 + Vorinostat (first compound 8 µM), 0.175; in the experiment with AZ3146 + Alpelisib (first compound 0.08 µM), 1.08. The relative viability was 0.98 with AZ3146 + Alpelisib (first compound 0.253 µM); 1.11 with AZ3146 + Alpelisib (first compound 0.8 µM); 0.861 with AZ3146 + Alpelisib (first compound 2.53 µM); 0.296 in the experiment with AZ3146 + Alpelisib (first compound 8 µM); 0.759 in the experiment with GSK-J4 + Pemetrexed (first compound 0.5 µM); 0.667 in the experiment with GSK-J4 + Pemetrexed (first compound 1.581 µM). Moreover, the relative viability in the experiment with GSK-J4 + Pemetrexed (first compound 5 µM) was found to be 0.736; with GSK-J4 + Pemetrexed (first compound 15.81 µM) it was 0.771; with GSK-J4 + Pemetrexed (first compound 50 µM), 0.649; with GSK-J4 + Crizotinib (first compound 0.5 µM), 0.601; in the experiment with GSK-J4 + Crizotinib (first compound 1.581 µM), 0.557; in the experiment with GSK-J4 + Crizotinib (first compound 5 µM) it was 0.702. For the same cell line, the relative viability with GSK-J4 + Crizotinib (first compound 15.81 µM) came to 0.666; with GSK-J4 + Crizotinib (first compound 50 µM), 0.509.

The values are drawn from the supplement of paper PMC10307832.
